This is an account of results in patent US4870098A, “Antagonists of leukotriene D4” (G. D. Searle & Co., priority 1989, dated 1989).

The test system of assay [1] is LTB4-induced dermal neutrophil chemotaxis (MPO activity). The assay is described as follows: Guinea Pig LTB4-Induced Dermal Chemotaxis. The assay is classed as in vivo. As to conditions: Cavia porcellus, method: 35 ng LTB4 intradermal, compound IV or IG, MPO at 4 hours, read-out: LTB4 antagonism: Guinea Pig LTB4 Induced Dermal Chemotaxis (IC50). The method, then:
Guinea Pig LTB4 -Induced Dermal Chemotaxis
Test compound was administered intravenously or intragastrically at various times prior to the injection of leukotriene B4 (LTB4). LTB4 was diluted in phosphate buffered saline (PBS) and 35 ng in 0.2 ml were injected intradermally into the shaven backs of anesthetized guinea pigs. PBS was injected as control. Four hours later, animals were sacrificed, skins removed and stored frozen (-70° C.). Injection sites were removed with a skin punch and mechanically homogenized (Polytron, Brinkmann Instruments). Myeloperoxidase (MPO), a marker enzyme for neutrophils, was extracted by 0.5% hexadecyltrimethylammonium bromide in 50 mM potassium phosphate buffer (pH 6.0), using sonication and freeze-thaw procedures. After centrifugation (40,000×g, 30 minutes), enzyme activities in the supernatants were assayed spectrophotometrically (A460) by measuring the decomposition of hydrogen peroxide with ortho-dianisidine after 15 minutes. […] In guinea pigs the level of MPO activity increased with the amount of LTB4 injected.

Assay [2] concerns the target T1, LTD4 receptor (guinea pig lung receptors) (Cavia porcellus, UniProt Q2NNR5).
T1 construct: isolated from guinea pig lung membrane; from tissue; host or cells: guinea pig lung membrane
T1 sequence (Q2NNR5 1-340): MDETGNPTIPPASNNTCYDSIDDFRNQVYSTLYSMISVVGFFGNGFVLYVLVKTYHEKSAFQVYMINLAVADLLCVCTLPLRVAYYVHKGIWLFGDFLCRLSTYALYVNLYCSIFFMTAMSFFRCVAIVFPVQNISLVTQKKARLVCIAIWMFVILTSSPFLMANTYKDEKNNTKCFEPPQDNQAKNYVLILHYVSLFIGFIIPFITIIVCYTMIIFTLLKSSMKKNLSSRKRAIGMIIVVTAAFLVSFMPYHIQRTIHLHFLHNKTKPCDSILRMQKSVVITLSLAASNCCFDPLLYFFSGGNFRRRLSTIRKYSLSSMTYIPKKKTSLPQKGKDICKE
The assay is described as follows: Leukotriene Receptor Binding Assay (LTD4 receptor binding, guinea pig lung membrane). As to conditions: LTD4 binding to guinea pig lung membrane receptors; read-out: LTD4 antagonism: Receptor Binding Assay (IC50). The method, then: Leukotriene Receptor Binding Assay
The in vitro LTD4 receptor binding assay is carried out as follows:
Specific binding of titrated LTD4 to a fixed number of guinea pig lung receptors, isolated from guinea pig lung membrane, is measured in the presence and absence of test compound. The initial screening dose (1×10^-5 M) is considered active if the specific binding of the LTD4 is reduced by 45% or more. Active compounds are tested in a dose-response manner to determine IC50 values.

The subject of assay [3] is human neutrophils (myeloperoxidase release). The assay is described as follows: Human Neutrophil Degranulation Assay. The class given is cell-based. As to conditions: table head LTB4 antagonism (method: LTB4 5×10^-8 M or f-met-leu-phe 5×10^-6 M). The method, then:
(§1) Preparation of Human Neutrophils
(§2) Neutrophils are purified from venous blood of normal human donors using standard techniques of dextran sedimentation, centrifugation on Histopaque sterile solution (Sigma) and hypotonic lysis of erythrocytes (Boyum, A., Isolation of Leukocytes From Human Blood: Further Observations. Scand. J. Lab. Clin. Invest. 21 (Suppl. 97): 31, 1968). The purity of isolated neutrophils was ≥95%.
Human Neutrophil Degranulation Assay
Neutrophil degranulation was determined by measuring the release of myeloperoxidase activity into the incubation medium. Neutrophils (3×10^6) in 1 ml HBSS solution were preincubated with cytochalasin B(5μg) at 37° C. for 5 minutes, followed by preincubation with test compounds for 7 minutes. […] The supernatants and the pellet-extracts were then assayed spectrophotometrically for myeloperoxidase activity by determining the rate of decomposition of H2 O2 with o-dianisidine as hydrogen donor as described by Renlund, et al. (Renlund, D. G., MacFarlane, J. L., Christensen, R. D., Lynch, R. E., and Rothstein, G., A Quantitive And Sensitive Method for Measurement of Myeloperoxidase, Clinical Research 28:75A, 1980). Myeloperoxidase activity released into the supernatant was expressed as the percent of the average total activity (pellet plus supernatant).

For the next assay, the target named is T2, LTB4 receptor (Homo sapiens, UniProt Q15722).
T2 construct: Neutrophils are purified from venous blood of normal human donors; endogenous in cells; host or cells: human neutrophils from venous blood
T2 sequence (Q15722 whole entry): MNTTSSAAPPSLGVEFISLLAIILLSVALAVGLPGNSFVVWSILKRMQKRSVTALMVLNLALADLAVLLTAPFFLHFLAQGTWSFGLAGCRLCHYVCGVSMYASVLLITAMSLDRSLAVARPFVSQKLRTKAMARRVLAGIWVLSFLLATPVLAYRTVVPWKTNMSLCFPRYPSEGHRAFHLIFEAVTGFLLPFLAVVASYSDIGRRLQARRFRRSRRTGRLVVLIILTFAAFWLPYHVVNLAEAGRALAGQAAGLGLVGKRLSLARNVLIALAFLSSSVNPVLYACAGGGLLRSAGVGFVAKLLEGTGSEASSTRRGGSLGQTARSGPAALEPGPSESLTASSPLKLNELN
The assay is described as follows: LTB4 Receptor Binding Assay (human neutrophils). As to conditions: 0.6 nano M (3H) LTB4, 0° C., 45 minutes, read-out: LTB4 antagonism: Receptor Binding Assay (IC50). The method, then:
as §1, §2
LTB4 Receptor Binding Assay
Neutrophils (4-6×10^6) in 1 ml Hanks' balanced salt solution containing 10 mM HEPES buffer (HBSS), pH 7.4 and […] nordihydroguaiaretic acid were incubated with 0.6 nano M (^3 H) LTB4 in the presence or absence of test compounds. The incubation was carried out at 0° C. for 45 minutes and terminated by adding 5 ml of ice-cold HBSS followed by rapid filtration of incubation mixture under vacuum through GF/C glass fiber filters. The filters were further washed with 10 ml HBSS and radioactivity was determined. […] All data refer to specific binding.

In assay [4] the target is T3, guinea pig ileum (LTD4-induced contraction) (Cavia porcellus, UniProt Q2NNR5).
T3 construct: Fresh segments of guinea pig ileum; from tissue; host or cells: guinea pig ileum segments
T3 sequence (Q2NNR5 1-340): T1 sequence (Q2NNR5 1-340)
The assay is described as follows: LTD4 Antagonism in Guinea Pig Ileum. The class given is cell-based. As to conditions: pA2, negative log of antagonist concentration required to produce a dose-ratio of 2. The method, then: LTD4 Antagonism in Guinea Pig Ileum
Fresh segments of guinea pig ileum were suspended in 2 ml. tissue baths containing oxygenated modified Tyrodes solution. After an equilibration period, an agonist dose-response curve was generated by exposing each tissue to 4 different LTD4 doses and measuring the ensuing contractile heights. The ileum segments were washed and rested between exposures to agonist. Following this, the tissues were incubated with a single concentration of test compound and the agonist dose-response procedure was repeated. The dose ratio is a measure of the antagonist's ability to shift the agonist dose-response curve to the right. It is derived as the concentration of agonist necessary to reach a given response level in the presence (A') versus the absence (A) of antagonist. For example, if the test concentration of compound had no effect on the agonist-induced response (A'=A) the dose-ratio would approximate 1. […] One dose-ratio value is determined for each strip of ileum used to test antagonist. […] Schild analysis examines the linearity of the function described by the dose-ratios written as log [(A'/A)-1] versus antagonist concentration. If the linearity is […] and the slope approximates 1, inhibition is considered to be competitive. The pA2 is the negative log of the antagonist concentration required to produce a dose-ratio of 2. […]

In assay [5] the test system is LTD4-induced bronchoconstriction. The assay is described as follows: In Vivo Bronchoconstriction Assay (LTD4-induced intratracheal insufflation pressure increase). Set-up: species or system guinea pig (Hartly). As to conditions: guinea pig, 2000 units of LTD4 IV. The method, then: The compounds are tested in vivo as follows. Adult male fasted Hartly guinea pigs weighing 300-350 g are pretreated with pyrilamine and indomethacin to block the bronchoconstricture effects of endogenous histamine and the synthesis of thromboxane A2 respectively. Compounds of the invention are administered IV or IG at appropriate times prior to the IV administration of 2000 units of LTD4. Intratracheal pressure is monitored prior to and subsequent to LTD4 in animals anesthetized with pentobarbital and attached to a rodent respirator. Compounds which antagonize the direct component of LTD4 action on respiratory smooth muscle inhibit intratracheal insufflation pressure increases (P< or =0.05) caused by LTD4. FPL 55712 is used as a control.

A word on the IC50: it is the concentration at which inhibition is half-maximal. In general, Kb refers to the affinity of an antagonist, worked out from how it opposes an agonist. As to `CCCc1c(OCCCSCC2COC3(CCC(CC(=O)O)C3)S2)ccc(C(C)=O)c1O` (stereo not drawn) [Example 2, 3-[[[3-(4-acetyl-3-hydroxy-2-propylphenoxy)propyl]thio]methyl]-1-oxa-4-thiaspiro[4.4]nonane-7-acetic acid], the IC50 is 8.3 µM in assay [1], 6.15 µM in assay [2], 7.3 µM in assay [3] and 0.8 µM at LTB4 receptor. The Kb in assay [4] is 0.0457 µM. Moreover, the “LTD4 antagonism: In Vivo Bronchoconstriction Assay (% Inhibition at 5 mpk. IV)” value in assay [5] is on record as 94.7%.
